This note sets out measurements from US10111902B2, “Polymers for reversing heparin-based anticoagulation” (University of British Columbia, priority 2011, dated 2018).

The test system of this test is LMWH Enoxaparin. The experiment in a line: APTT assay, neutralization of LMWH Enoxaparin in citrate plasma. It is filed as biochemical, human. The note with it: Enoxaparin 2.0 U/ml or 1.14 IU/mL, 0.001 to 0.25 mg/ml. As to the method: Citrate plasma was anticoagulated with 2.0 U/ml UFH, Enoxaparin and Tinzaparin and was treated with different concentrations of the HBSPCM polymers and protamine (0.001 to 0.25 mg/ml). The APTT was measured for each sample.
Citrate plasma was anticoagulated with UFH (2.0 IU/mL), Enoxaparin (2.0 IU/mL) and Tinzaparin (1.14 IU/mL) and was titrated with different concentrations of the HBSPCM polymers and protamine (0.001 to 0.25 mg/ml). The APTT was measured for each sample.
Ability of HBSPCM polymers JNK-9, JNK-10 and JNK-11 was studied for the range of concentration from 0.01 to 0.25 mg/mL prepared in 0.15 M saline. Citrated blood was spun at 3000 RPM for 10 min to obtain platelet poor plasma (PPP). The PPP was then heparinized by adding 45 μL of heparin (UFH, LMWH etc.) to 2200 μL of PPP final concentration of 2.0 IU/mL for UFH and Tinzaparin and 1.14 IU/mL for Enoxaparin. Normal control was prepared by adding 25 μL of 0.15 M saline to 250 μL of PPP. 25 μL of each antidote solution (polymer or protamine) was added to 225 μL of heparinized PPP. 250 μL of APTT reagent (actin FSL) was then added and samples were incubated for 3 min at 37° C. 250 μL of normal control was combined with 250 μL of APTT reagent and also incubated for 3 min. 50 μL of 0.025M CaCl2 was added to 100 μL aliquots of normal control and sample (in triplicate). […]

As to protamine, the “LMWH Enoxaparin neutralization (APTT)” value is “neutralizes UFH and LMWH only in the narrow concentration range”.
